Test results from PMC5442763, “Selective Inhibition of ADAM17 Efficiently Mediates Glycoprotein Ibα Retention During Ex Vivo Generation of Human Induced Pluripotent Stem Cell‐Derived Platelets” (Stem Cells Translational Medicine, 2016).
pIC50: −log10 of the molar value. Peptide text beside a SMILES is read from it. * marks the point of attachment. Cbz = O=C(OCc1ccccc1)*; CH2F = FC*

How the values were obtained:
platelet aggregation = experiment: Platelet aggregation induced by thrombin or collagen; assay type: cell-based
human washed platelets = experiment: CCCP-induced GPIbα shedding from washed platelets; assay type: cell-based; details: relative to maximum inhibition elicited by KP-457 or GM-6001
Method: (§1) Flow cytometric analysis was performed as previously described. Briefly, iPSC‐ and ESC‐derived MKs on days 22–24 and platelets in their supernatants were stained with combinations of antibodies for 30 minutes on ice (for MKs) or at room temperature (for platelets). Samples of MKs/platelets were then washed, diluted with staining medium (phosphate‐buffered saline containing 3% fetal bovine serum), and analyzed using flow cytometry (FACSAria; BD). Trucount tubes (BD) were used to quantify the MKs and platelets.
Washed platelets were prepared as described elsewhere.

[1] = tested on: human iPSC-derived MKs and platelets; experiment: Generation of MKs and platelets from human iPSC-derived HPCs at 37°C, flow cytometry; assay type: cell-based; details: for number of CD41a+ total iPSC platelets / retention of GPIbα expression on CD41a+ iPSC-derived platelets / number of CD41a+ iPSC-derived MKs: KP-457 15 μmol/l, GM-6001 50 μmol/l, p38 MAP kinase inhibitor 10 μmol/l; for number of CD41a+ iPSC-derived MKs: MK differentiation and platelet production phases; for GPIbα retention by iPSC-derived platelets, inhibitor only during platelet production phase: days 21–23 or 24, KP-457 15, BIRB796 10, U0126 10, BMS345541 10, Z-VAD 10, Ro31-8220 3 μmol/l
Method: Directed differentiation to MKs and platelets from iPSCs and ESCs was performed as described previously. Briefly, 3 × 10^4 HPCs derived from iPS‐sacs on C3H10T1/2 feeder cells in the presence of 20 ng/ml vascular endothelial growth factor were transferred on day 14 of culture onto C3H10T1/2 feeder cells in differentiation medium supplemented with 50 ng/ml stem cell factor, 100 ng/ml thrombopoietin, 25 U/ml heparin sodium, and test compounds at 24°C or 37°C. The medium was refreshed every 3 days, and nonadherent cells were collected and analyzed on days 22–24.
as §1

human ADAM10 = molecular target: T1, human ADAM10 (Homo sapiens, UniProt O14672); experiment: MMP and ADAM activity assay (fluorescence-based): ADAM10; assay type: biochemical; details: cell-free fluorescence assay
T1 construct: purchased R&D Systems
Method: (§2) KP‐457 and GM‐6001 were tested for their ability to inhibit MMP‐ and ADAM‐catalyzed cleavage of substrates in a fluorescence‐based assay. Human ADAM17, ADAM10, and MMP17 were from R&D Systems (Minneapolis, MN, http://www.rndsystems.com), and human MMP1, MMP2, MMP3, MMP8, MMP9, MMP13, and MMP14 were from EMD Millipore. MMP1, MMP2, MMP8, MMP9, MMP13, and MMP17 were activated using p‐aminophenylmercuric acetate (Sigma‐Aldrich) before testing. Fluorogenic substrates for measuring activity of ADAM10 and ADAM17 [Nma‐[…](Dnp)r‐NH2, based on the cleavage site of TNF‐α]; MMP1, MMP9, MMP13, and MMP14 [Dnp‐P‐Cha‐GC(Me)HAK(N‐Me‐Abz)‐NH2]; MMP3 [MOCAc‐RPKPVE‐Nva‐WRK(Dnp)‐NH2]; and MMP2, MMP8, and MMP17 [MOCAc‐PLGL‐A2pr(Dnp)‐AR‐NH2] were all provided by Peptide Institute (Osaka, Japan, https://www.peptide.co.jp/en) and used as substrates. In addition, inhibitory activities were measured using LC/MS/MS with a GPIbα‐based substrate peptide ([…]), a C terminal‐based standard peptide ([…]), and an internal standard peptide ([…]). These peptides were synthetized by Scrum (Tokyo, Japan, http://www.scrum‐net.co.jp/english/top_en.htm).

human MMP14 = molecular target: T2, human MMP14 (Homo sapiens, UniProt P50281); experiment: MMP and ADAM activity assay (fluorescence-based): MMP14; assay type: biochemical; details: cell-free fluorescence assay
T2 construct: purchased EMD Millipore
Method: as §2

human MMP3 = molecular target: T3, human MMP3 (Homo sapiens, UniProt P08254); experiment: MMP and ADAM activity assay (fluorescence-based): MMP3; assay type: biochemical; details: cell-free fluorescence assay
T3 construct: purchased EMD Millipore
Method: as §2

Human ADAM17 [2] = molecular target: T4, Human ADAM17 (Homo sapiens, UniProt P78536); experiment: Cleavage of GPIbα-based substrate peptide by ADAM17 (LC/MS/MS); assay type: biochemical; details: read-out: IC50, inhibition of C-terminal cleavage of the GPIbα sequence by ADAM17
T4 construct: purchased R&D Systems
Text: as §2, with “Human” for “KP‐457 and GM‐6001 were tested for their ability to inhibit MMP‐ and ADAM‐catalyzed cleavage of substrates in a fluorescence‐based assay. Human”
(1 picture or pasted object on this page, not shown here)

[3] = tested on: mouse ESC-derived platelets; design: method as in PMID 18663123; details: 100 µmol/l; cited from earlier work
Human ADAM17 [4] = molecular target: T4, Human ADAM17; experiment: MMP and ADAM activity assay (fluorescence-based, cell-free): ADAM17; assay type: biochemical; details: cell-free fluorescence assay, TNF-α cleavage site substrate
Text: as §2, with “Human” for “KP‐457 and GM‐6001 were tested for their ability to inhibit MMP‐ and ADAM‐catalyzed cleavage of substrates in a fluorescence‐based assay. Human”

human MMP13 = molecular target: T5, human MMP13 (Homo sapiens, UniProt P45452); experiment: MMP and ADAM activity assay (fluorescence-based): MMP13; assay type: biochemical; details: cell-free fluorescence assay
T5 construct: purchased EMD Millipore
Text: as §2, with “Human” for “KP‐457 and GM‐6001 were tested for their ability to inhibit MMP‐ and ADAM‐catalyzed cleavage of substrates in a fluorescence‐based assay. Human”

human MMP17 = molecular target: T6, human MMP17 (Homo sapiens, UniProt Q9ULZ9); experiment: MMP and ADAM activity assay (fluorescence-based): MMP17; assay type: biochemical; details: cell-free fluorescence assay
T6 construct: purchased R&D Systems
Method: as §2

ADAM17 = tested on: ADAM17; design: method as in PMID 25049354; details: cited from earlier work
mouse platelets = tested on: mouse platelets; design: method as in PMID 23801636; details: cited from earlier work

T4 sequence (P78536 215-824): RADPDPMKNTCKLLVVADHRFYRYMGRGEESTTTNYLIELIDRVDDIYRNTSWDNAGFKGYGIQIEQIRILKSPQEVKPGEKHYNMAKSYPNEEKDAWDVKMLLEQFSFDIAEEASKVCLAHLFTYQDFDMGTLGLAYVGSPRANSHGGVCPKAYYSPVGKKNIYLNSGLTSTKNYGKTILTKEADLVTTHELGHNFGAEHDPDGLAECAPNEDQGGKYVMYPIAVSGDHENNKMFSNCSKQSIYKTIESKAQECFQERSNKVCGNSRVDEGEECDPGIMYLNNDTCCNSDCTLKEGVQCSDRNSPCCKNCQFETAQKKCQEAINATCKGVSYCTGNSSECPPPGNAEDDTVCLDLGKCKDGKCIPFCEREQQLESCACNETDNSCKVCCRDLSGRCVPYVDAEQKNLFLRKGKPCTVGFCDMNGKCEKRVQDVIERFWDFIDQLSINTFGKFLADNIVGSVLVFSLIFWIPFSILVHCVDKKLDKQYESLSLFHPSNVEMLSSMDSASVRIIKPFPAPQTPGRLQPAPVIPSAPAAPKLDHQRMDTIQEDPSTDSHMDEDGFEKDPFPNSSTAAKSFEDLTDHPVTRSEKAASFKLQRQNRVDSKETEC
T3 sequence (P08254 100-477): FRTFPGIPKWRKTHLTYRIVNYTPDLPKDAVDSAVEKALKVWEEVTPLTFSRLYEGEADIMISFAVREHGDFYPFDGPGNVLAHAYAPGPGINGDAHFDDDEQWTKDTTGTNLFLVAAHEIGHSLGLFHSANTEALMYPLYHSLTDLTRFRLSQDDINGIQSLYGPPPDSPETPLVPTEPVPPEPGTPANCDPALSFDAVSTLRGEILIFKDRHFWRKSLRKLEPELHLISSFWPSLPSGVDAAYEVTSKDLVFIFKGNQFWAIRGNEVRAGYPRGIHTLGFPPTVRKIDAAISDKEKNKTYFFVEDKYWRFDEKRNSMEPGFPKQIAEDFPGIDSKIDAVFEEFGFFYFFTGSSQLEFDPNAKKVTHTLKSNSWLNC
T6 sequence (Q9ULZ9 126-565 limits assumed): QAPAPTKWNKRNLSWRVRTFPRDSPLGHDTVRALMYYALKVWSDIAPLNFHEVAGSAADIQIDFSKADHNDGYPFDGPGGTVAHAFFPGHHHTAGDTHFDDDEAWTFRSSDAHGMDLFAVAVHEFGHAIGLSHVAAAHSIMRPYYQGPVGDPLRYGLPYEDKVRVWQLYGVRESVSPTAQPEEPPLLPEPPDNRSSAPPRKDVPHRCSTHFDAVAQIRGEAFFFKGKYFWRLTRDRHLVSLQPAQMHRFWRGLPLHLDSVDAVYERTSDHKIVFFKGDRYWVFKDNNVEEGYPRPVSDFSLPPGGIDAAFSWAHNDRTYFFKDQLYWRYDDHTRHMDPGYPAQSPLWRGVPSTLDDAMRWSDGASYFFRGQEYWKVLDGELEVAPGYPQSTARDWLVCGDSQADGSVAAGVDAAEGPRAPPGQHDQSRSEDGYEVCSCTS
T1 sequence (O14672 214-748): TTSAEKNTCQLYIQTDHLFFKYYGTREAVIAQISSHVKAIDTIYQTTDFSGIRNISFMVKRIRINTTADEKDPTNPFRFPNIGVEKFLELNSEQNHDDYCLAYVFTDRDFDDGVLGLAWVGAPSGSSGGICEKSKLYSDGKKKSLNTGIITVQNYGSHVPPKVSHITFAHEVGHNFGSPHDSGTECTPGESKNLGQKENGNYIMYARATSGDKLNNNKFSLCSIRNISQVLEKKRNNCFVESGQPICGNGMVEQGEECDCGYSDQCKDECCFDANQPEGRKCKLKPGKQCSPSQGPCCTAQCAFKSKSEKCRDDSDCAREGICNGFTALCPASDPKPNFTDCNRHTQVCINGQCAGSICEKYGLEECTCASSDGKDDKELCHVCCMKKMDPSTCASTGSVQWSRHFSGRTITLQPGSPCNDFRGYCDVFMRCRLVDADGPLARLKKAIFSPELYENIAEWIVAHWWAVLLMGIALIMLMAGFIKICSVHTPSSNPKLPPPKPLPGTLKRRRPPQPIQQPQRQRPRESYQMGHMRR

In the case of `Cc1ccc(-n2nc(C(C)(C)C)cc2NC(=O)Nc2ccc(OCCN3CCOCC3)c3ccccc23)cc1` [BIRB796], the “effect on collagen-induced platelet aggregation” value (platelet aggregation) was “diminished”, the “plateau of the inhibitory effect on CCCP-induced GPIbα shedding” value (human washed platelets) was “around half the maximum inhibition” and the “GPIbα+ population in human iPSC-derived CD41a+ platelets” value ([1]; BIRB796 10 μmol/l, representative FACS plot, vehicle 48.3%) was 48.0%. The “number of CD41a+ total iPSC platelets” value [1] was “increased”, the “retention of GPIbα expression on CD41a+ iPSC-derived platelets” value (“retention of GPIbα expression” for short) [1] was “failed to preserve” and the “number of CD41a+ iPSC-derived MKs” value [1] was “increased”. The “GPIbα retention by iPSC-derived platelets, inhibitor only during platelet production phase” value [1] was “failed to prevent”.

For `Cc1ccc2nc(NCCN)c3ncc(C)n3c2c1` [BMS345541], the “GPIbα retention by iPSC-derived platelets, inhibitor only during platelet production phase” value [1] was “failed to prevent”.

`CNC(=O)[C@H](Cc1c[nH]c2ccccc12)NC(=O)[C@@H](CC(=O)NO)CC(C)C` [GM-6001] showed a pIC50 (human ADAM10) of 6.19, a pIC50 (human MMP14) of 8.53 and a pIC50 (human MMP3) of 7.10. The “number of CD41a+ total iPSC platelets” value [1] was “no significant effect”, the “retention of GPIbα expression” value [1] was “able to retain” and the “number of CD41a+ iPSC-derived MKs” value [1] was “no significant effect”. The pIC50 (Human ADAM17 [2]) was 7.27, the “GPVI shedding during platelet generation from mouse ESCs” value [3] was “partially inhibited” and the pIC50 (Human ADAM17 [4]) was 6.79. It also gave a pIC50 (human MMP13) of 9.36 and a pIC50 (human MMP17) of 8.29.

In the case of `COc1ccc(S(=O)(=O)N2Cc3ccccc3C[C@@H]2C(=O)NO)cc1` [M8I], the ADAM17 inhibition (ADAM17) is given as “potently inhibits ADAM17”.

In the case of `Cn1cc(C2=C(c3cn(CCCSC(=N)N)c4ccccc34)C(=O)NC2=O)c2ccccc21` [Ro31‐8220], the “GPIbα retention by iPSC-derived platelets, inhibitor only during platelet production phase” value [1] was “failed to prevent”.

In the case of `C[S+]([O-])c1ccc(-c2nc(-c3ccncc3)c(-c3ccc(F)cc3)[nH]2)cc1` (centres unmarked) [SB203580], the “effect on collagen-induced platelet aggregation” value (platelet aggregation) was “diminished”, the “plateau of the inhibitory effect on CCCP-induced GPIbα shedding” value (human washed platelets) was “around half the maximum inhibition” and the “number of CD41a+ total iPSC platelets” value [1] was “increased”. The “retention of GPIbα expression” value [1] was “failed to preserve”, the “number of CD41a+ iPSC-derived MKs” value [1] was “increased” and the “suppression of thrombin-induced GPIbα shedding from mouse platelets compared with GM-6001” value (mouse platelets) was “less effectively”.

In the case of `N#CC(=C(/N)Sc1ccccc1N)/C(C#N)=C(/N)Sc1ccccc1N` [U0126], the “GPIbα retention by iPSC-derived platelets, inhibitor only during platelet production phase” value [1] was “failed to prevent”.

For `CC(NC(=O)C(NC(=O)OCc1ccccc1)C(C)C)C(=O)NC(CC(=O)O)C(=O)CF` (stereo not drawn) [Z‐VAD] (Cbz-Val-Ala-Asp-CH2F; configuration not given here), the “GPIbα retention by iPSC-derived platelets, inhibitor only during platelet production phase” value [1] was “failed to prevent”.
